Counter-ions that a name gives are not always drawn. Like-named read-outs stand apart in the source and are kept apart here.
How the values were obtained:
[1] = target: T1, 5-HT4 receptor (Cavia porcellus, UniProt O70528); test: Serotonin 4 (5-HT4) receptor binding assay; set-up: species or system guinea pig; details: inhibition of specific binding of 0.1 nM [3H]-GR113808; guinea pig striatum membrane preparations; 37° C., 30 minutes; read-out: IC50
T1 construct: the mixture was suspended to give receptor membrane preparations; from tissue; host or cells: guinea pig (Slc-Hartley) brain striatum membranes
T1 sequence (O70528 whole entry): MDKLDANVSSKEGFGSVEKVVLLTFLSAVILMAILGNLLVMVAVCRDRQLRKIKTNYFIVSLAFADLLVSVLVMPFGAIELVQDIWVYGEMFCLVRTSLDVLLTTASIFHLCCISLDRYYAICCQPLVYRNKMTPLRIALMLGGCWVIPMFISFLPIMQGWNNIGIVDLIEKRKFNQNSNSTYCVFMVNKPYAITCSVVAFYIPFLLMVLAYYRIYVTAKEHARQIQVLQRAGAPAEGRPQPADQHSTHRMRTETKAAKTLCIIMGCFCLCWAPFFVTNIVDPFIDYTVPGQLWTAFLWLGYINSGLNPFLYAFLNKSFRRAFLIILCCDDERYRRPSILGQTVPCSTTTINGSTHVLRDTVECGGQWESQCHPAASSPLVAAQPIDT
Method: 5-HT4 receptor binding assay and preparations of receptor membrane preparations were carried out according to a method of Grossman et al. [see British J. Pharmacol., (1993) 109, 618].
Slc-Hartley guinea pigs (body weight 300 to 400 g) were decapitated to remove brain rapidly, and striatum was isolated. To the obtained tissues were added fifteenfold of Hepes buffer (50 mM, pH7.4, 4° C.), and the mixture was homogenized by Teflon® homogenizer and centrifuged at 48,000×g (4° C.) for 15 minutes. To the resulting precipitate was added Hepes buffer (1 ml) to 30 mg by wet weight of tissues, and the mixture was suspended to give receptor membrane preparations.
0.1 nM [^3H]-GR113808 {chemical name: [1-[2-(methylsulfonylamino)ethyl]-4-piperidinyl]methyl 1-methylindole-3-carboxylate}, receptor membrane preparations, and Hepes buffer (50 mM, pH7.4, 4° C., 1 ml) containing test compounds or 30 μM serotonin were placed in an assay tube, and incubated at 37° C. for 30 minutes. On quenching the reaction, the mixture was rapidly filtered on whatman GF/B filter, which was presoaked in 0.1% polyethyleneimine for 1 hour, by using Brandel cell Harvester, and washed with ice-cooled 50 mM Tris-HCl (pH7.7, 4 ml) three times. To the filter after filtration was added ACS II scintillator, and then a radioactivity was determined by a liquid scintillation counter.
50% inhibition concentrations (IC50) were determined from inhibition rates of test compounds to specific bindings which were obtained by subtracting nonspecific bindings from total binding amounts of [^3H]-GR113808.

[2] = system: Male Slc-Hartley guinea pigs; test: Electrocardiographic assay for guinea pig; details: dose extending 5% of QTc; i.v. infusion for 15 minutes, anesthetized guinea pigs, ECG lead II
Method: (§1) Male Slc-Hartley guinea pigs were anesthetized to determine electrocardiogram (lead II) under artificial respiration. A drug solution was continuously and intravenously infused via cannula indwelled in cervical veins at a flow rate: 0.2 ml/kg/min for 15 minutes.

[3] = system: Male Slc-ddy mice; test: Mouse defecation assay; type: in vivo; set-up: key: −: No Effect; +: Moderately Improved (p<0.05); ++: Significantly Improved (p<0.01); details: 3 mg/kg orally; stool weight 30, 60 and 120 minutes after administration; Dunnett assay vs control
Method: Male Slc-ddy mice (body weight 25 to 30 g) were used and allowed to ingest food and water ad libitum until commencement of experiments.
A group of 25 mice was divided into 5 groups, which 5 mice each per group were respectively transferred to fasting cages to adjust to new environments for about 1 hour. Then, each mouse was orally administered 3 mg/kg suspension of a test compound in 0.5% tragacanth solution to measure each stool weight of each group 30, 60, and 120 minutes after oral administration.
Efficacies were evaluated by Dunnett assay between test compounds and control.

[4] = system: Male Slc-Hartley guinea pigs; details: guinea pig, in vivo, iv
Method: as §1

| melting point | IC50 [1] | ED5% (mg/kg,i.v.) [4] | SMILES | ED5% (mg/kg,i.v.) [2] | Effect [3] |
| --- | --- | --- | --- | --- | --- |
| 127 to 129 °C | – | – | CCOc1cc(N)c(Cl)cc1C(=O)NC[C@H]1CN(CC2CCN(C(=O)N(C)OC)CC2)CCO1 [Example 205, (S)-4-amino-5-chloro-2-ethoxy-N-[{4-[(1-(N-methoxy-N-methylcarbamoyl)-4-piperidinyl)methyl]-2-morpholinyl}methyl]benzamide] | – | – |
| 175 °C | 9.36 nM | – | CCOc1cc(N)c(Cl)cc1C(=O)NCC1CN(CC2CCN(C(=O)OC)CC2)CCO1 (stereo not drawn) [Example 93] | – | – |
| – | 6.09 nM | – | COc1cc(N)c(Cl)cc1C(=O)NC[C@H]1CN(CC2CCN(C(=O)c3ccc(OC(C)=O)cc3)CC2)CCO1 [Example 169] | >30 mg/kg | ++ |
| 166 to 168 °C | 4.79 nM | – | CCOc1cc(N)c(Cl)cc1C(=O)NC[C@H]1CN(CC2CCN(C(=O)N3CCC3)CC2)CCO1 [Example 208, (S)-4-amino-N-[{4-[(1-(1-azetidinecarbonyl)-4-piperidinyl)methyl]-2-morpholinyl}methyl]-5-chloro-2-ethoxybenzamide] | – | – |
| – | 3.51 nM | – | COc1ccc(C(=O)N2CCC(CN3CCO[C@@H](CNC(=O)c4cc(Cl)c(N)cc4OC)C3)CC2)cc1 [Example 125] | >30 mg/kg | ++ |
| – | 45.2 nM | – | COc1cc(N)c(Cl)cc1C(=O)NC[C@H]1CN(CC2CCN(C(C)=O)CC2)CCO1 [Example 221] | >30 mg/kg | ++ |
| 164 to 167 °C (dec.) | – | – | COc1cc(N)c(Cl)cc1C(=O)NC[C@H]1CN(CC2CCN(C(=O)CO)CC2)CCO1 (as salt: hydrochloride) [Example 198, 4-amino-5-chloro-N-[{4-[(1-hydroxyacetyl-4-piperidinyl)methyl]-2-morpholinyl}methyl]-2-methoxybenzamide hydrochloride] | – | – |
| – | 1.95 nM | – | COc1cccc(C(=O)N2CCC(CN3CCO[C@@H](CNC(=O)c4cc(Cl)c(N)cc4OC)C3)CC2)c1 [Example 124] | >30 mg/kg | + |
| – | 21.2 nM | – | COc1cc(N)c(Cl)cc1C(=O)NC[C@H]1CN(CC2CCN(C(=O)C3CCOC3)CC2)CCO1 (stereo partly drawn) [Example 226] | >30 mg/kg | ++ |
| – | 18.1 nM | – | COc1cc(N)c(Cl)cc1C(=O)NC[C@H]1CN(CC2CCN(C(=O)c3nc[nH]n3)CC2)CCO1 [Example 229] | >30 mg/kg | ++ |
| 157 to 158 °C | 9.04 nM | – | CCOc1cc(N)c(Cl)cc1C(=O)NC[C@H]1CN(CC2CCN(C(=O)N(C)C)CC2)CCO1 [Example 72] | >30 mg/kg | ++ |
| – | 11.9 nM | – | COc1cc(N)c(Cl)cc1C(=O)NC[C@H]1CN(CC2CCN(S(C)(=O)=O)CC2)CCO1 [Example 94] | >30 mg/kg | ++ |
| – | 0.23 nM | – | CCOc1cc(N)c(Cl)cc1C(=O)NC[C@H]1CN(CC2CCN(C(=O)c3ccc(C)cc3)CC2)CCO1 [Example 121] | >30 mg/kg | ++ |
| 201 to 207 °C | – | – | CCOc1cc(N)c(Cl)cc1C(=O)NCC1CN(CC2CCN(C(N)=O)CC2)CCO1 (stereo not drawn) [Example 43, 4-amino-N-[{4-((1-carbamoyl-4-piperidinyl)methyl)-2-morpholinyl}methyl]-5-chloro-2-ethoxybenzamide] | – | – |
| – | – | >30 mg/kg | CCOc1cc(N)c(Cl)cc1C(=O)NC[C@H]1CN(CC2CCN(C(=O)CO)CC2)CCO1 [Example 197] | – | ++ |
| – | 14.5 nM | – | COCCC(=O)N1CCC(CN2CCO[C@@H](CNC(=O)c3cc(Cl)c(N)cc3OC)C2)CC1 [Example 224] | >30 mg/kg | ++ |
| 197 °C (dec.) | – | – | CCOc1cc(N)c(Cl)cc1C(=O)NCC1CN(CC2CCN(C#N)CC2)CCO1 (stereo not drawn) [Example 211, 4-amino-5-chloro-N-[{4-[(1-cyano-4-piperidinyl)methyl]-2-morpholinyl}-methyl]-2-ethoxybenzamide] | – | – |
| 179 to 180 °C | – | – | COc1cc(N)c(Cl)cc1C(=O)NCC1CN(CC2CCN(C(=O)N(C)C)CC2)CCO1 (stereo not drawn) [Example 67, 4-amino-5-chloro-N-[{4-[(1-dimethylcarbamoyl-4-piperidinyl)methyl]-2-morpholinyl}methyl]-2-methoxybenzamide] | – | – |
| 215 to 216 °C (dec.) | – | – | COc1cc(N)c(Cl)cc1C(=O)NC[C@H]1CN(CC2CCN(C(=O)CO)CC2)CCO1 (as salt: hydrobromid) (hydrate or solvate) [Example 220, (S)-4-amino-5-chloro-N-[{4-[(1-hydroxyacetyl-4-piperidinyl)methyl]-2-morpholinyl}methyl]-2-methoxybenzamide hydrobromide 2 hydrate] | – | – |
| – | 6.93 nM | – | COc1cc(N)c(Cl)cc1C(=O)NC[C@H]1CN(CC2CCN(C(=O)c3ccccc3OC(C)=O)CC2)CCO1 [Example 166] | >30 mg/kg | ++ |

| SMILES | melting point | IC50 [1] | ED5% (mg/kg,i.v.) [4] | ED5% (mg/kg,i.v.) [2] | Effect [3] |
| --- | --- | --- | --- | --- | --- |
| CCOc1cc(N)c(Br)cc1C(=O)NCC1CN(CC2CCN(C(=O)OC(C)(C)C)CC2)CCO1 (stereo not drawn) (as salt: fumarate) [Example 11, 4-amino-5-bromo-N-[{4-[(1-(tert-butoxycarbonyl)-4-piperidinyl)methyl]-2-morpholinyl}methyl]-2-ethoxybenzamide 1.5 fumarate] | 171 to 172 °C | – | – | – | – |
| CCOc1cc(N)c(Cl)cc1C(=O)NCC1CN(CC2CCN(C(=O)OC(C)(C)C)CC2)CCO1 (stereo not drawn) (as salt: fumarate) [Example 4, 4-amino-N-[{4-[(1-(tert-butoxycarbonyl)-4-piperidinyl)methyl]-2-morpholinyl}-methyl]-5-chloro-2-ethoxybenzamide 1.5 fumarate] | 167 to 169 °C | – | – | – | – |

Reference: US7906510B2, “Amide derivative and pharmaceutical composition containing the same” (Dainippon Sumito Pharma Co., Ltd., priority 2008, dated 2011)
